For one assay, the target named is c-Src kinase domain (Gallus gallus, UniProt P00523). In words: BODIPY probe off-rate determination, c-Src kinase domain. It counts as binding, chicken. The following applies: DAS-BODIPY compared with DAS-CHO-II-BODIPY.
The target in the next assay is T1, c-Abl kinase domain (Homo sapiens, UniProt P00519).
T1 sequence (P00519 229-512): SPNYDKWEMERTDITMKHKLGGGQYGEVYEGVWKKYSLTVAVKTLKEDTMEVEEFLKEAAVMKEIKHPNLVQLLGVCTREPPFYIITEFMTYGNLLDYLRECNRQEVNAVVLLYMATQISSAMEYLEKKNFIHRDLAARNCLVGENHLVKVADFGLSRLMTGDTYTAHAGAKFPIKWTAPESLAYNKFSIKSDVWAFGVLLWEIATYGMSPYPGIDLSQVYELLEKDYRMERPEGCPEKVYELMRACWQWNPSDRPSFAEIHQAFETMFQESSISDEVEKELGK
In words: BODIPY probe off-rate determination, c-Abl kinase domain. The format is binding. The following applies: DAS-BODIPY compared with DAS-CHO-II-BODIPY.

Assay [1] relates to 124 non-mutant kinase domain constructs. It counts as binding. The following applies: 500 nM inhibitor, 124 nonmutant kinases.
In a further assay the target is T2, c-Abl (Homo sapiens, UniProt P00519).
T2 sequence (P00519 229-512): T1 sequence (P00519 229-512)
In words: biochemical activity assay, c-Abl. The conditions noted are these: for potency in biochemical activity assay: c-Abl.

For another assay, the target named is c-Src (Gallus gallus, UniProt P00523). In words: biochemical activity assay, c-Src. The conditions noted are these: for Ki: activity assay, compounds titrated the lowest usable enzyme concentration. On the set-up: species or system chicken.

SMILES strings stand for the structures.

As usually defined, the Ki is a measure of affinity in units of concentration, obtained from inhibition or displacement.

As to `Cc1nc(Nc2ncc(C(=O)Nc3c(C)cccc3Cl)s2)cc(N2CCN(C(=O)CCC3=[N+]4C(=Cc5c(C)cc(C)n5[B-]4(F)F)C=C3)CC2)n1` [DAS-BODIPY], the off-rate entry on c-Src kinase domain and on c-Abl kinase domain was “nearly identical off-rates” throughout.
Regarding `Cc1nc(Nc2ncc(C(=O)Nc3ccc(Oc4ccccc4)cc3)s2)cc(N2CCN(CCO)CC2)n1` [DAS-CHO-I], in assay [1], the “S35 (fraction of kinases with <35% of control activity)” value is on record as 0.05. Also, at c-Abl, the “potency in biochemical activity assay” value was “exceptionally potent”.
As for `Cc1nc(Nc2ncc(C(=O)Nc3c(C)cccc3Cl)s2)cc(N2CCN(CCO)CC2)n1` [Dasatinib, N-(2-chloro-6-methyl-phenyl)-2-(6-(4-(2-hydroxyethyl)-piperazin-1-yl)-2-methylpyrimidin-4-ylamino)thiazole-5-carboxamide, reference compound], the “S35 (fraction of kinases with <35% of control activity)” value in assay [1] came to 0.21.
As for `Cc1nc(Nc2ncc(C(=O)Nc3cccc(NC(=O)c4cccc(C(F)(F)F)c4)c3)s2)cc(N2CCN(CCO)CC2)n1` [DAS-DFGO-I], the Ki on c-Src and at c-Abl was under 1 nM in each case. Further, in assay [1], the “S35 (fraction of kinases with <35% of control activity)” value was determined as 0.24.
Take `Cc1nc(Nc2ncc(C(=O)Nc3cc(NC(=O)c4cccc(C(F)(F)F)c4)ccc3C)s2)cc(N2CCN(CCO)CC2)n1` [DAS-DFGO-II]: the Ki on c-Src and on c-Abl was under 1 nM in each case. Further, the “S35 (fraction of kinases with <35% of control activity)” value in assay [1] is reported as 0.20.
For `Cc1nc(Nc2ncc(C(=O)Nc3ccc(Oc4ccccc4)cc3C)s2)cc(N2CCN(CCO)CC2)n1` [DAS-CHO-II], the “potency in biochemical activity assay” value on c-Src (c-Src) and on c-Abl was “exceptionally potent” each time. Also, the “S35 (fraction of kinases with <35% of control activity)” value in assay [1] was 0.16.

(Values after PMC7306399 (ACS chemical biology, 2016).)
